Measurements published in ChEMBL document CHEMBL4354832, “Discovery of a Covalent Inhibitor of KRASG12C (AMG 510) for the Treatment of Solid Tumors” (J Med Chem, 2020).
pIC50: −log10 of the molar value. ≈ marks a conversion by molar mass, not a printed value. Calls of active or inactive are those of the source. No cut-off for these calls is given here.

Key:
[1] = Half life of compound at 25 degree C; format: physicochemical
[2] = Volume of distribution at steady state in BALB/c mouse at 1 mg/kg, iv or 10 mg/kg, po; format: ADME, organism-based; conditions: in vivo, read-out: Vdss
[3] = Oral bioavailability in BALB/c mouse at 10 mg/kg; format: ADME, organism-based; conditions: in vivo
[4] = Solubility of compound in FaSSIF incubated for 48 to 72 hrs under shaking conditions by LCMS analysis; format: physicochemical
[5] = Intrinsic clearance in human cryopreserved hepatocytes assessed per 10^6 cells at 0.5 uM measured upto 60 mins by LCMS analysis; format: ADME, cell-based, Hepatocyte; conditions: read-out: CLH
A549 = assay: Antiproliferative activity against human A549 cells harboring KRAS G12S point mutant assessed as cell growth inhibition after 72 hrs by Celltiter-Glo luminescent cell viability assay; format: functional, cell-based; conditions: A549, 72 h
MIA PaCa-2 = assay: Antiproliferative activity against human MIAPaCa2 cells harboring KRAS G12C point mutant assessed as cell growth inhibition after 72 hrs by Celltiter-Glo luminescent cell viability assay; format: functional, cell-based; conditions: MIA PaCa-2, 72 h
[6] = Half life in BALB/c mouse at 1 mg/kg, iv or 10 mg/kg, po; format: ADME, organism-based; conditions: in vivo
[7] = Intrinsic clearance in mouse cryopreserved hepatocytes assessed per 10^6 cells at 0.5 uM measured upto 60 mins by LCMS analysis; format: ADME, cell-based, Hepatocyte; conditions: read-out: CLH
[8] = Solubility of compound in PBS buffer at pH 7.4 incubated for 48 to 72 hrs under shaking conditions by LCMS analysis; format: physicochemical
[9] = Permeability of compound across apical to basolateral membrane in MDCK2 cells at 10 to 50 uM incubated for 2 hrs under shaking condition by LC-MS/MS analysis; format: ADME, cell-based, Canis lupus familiaris, MDCK-II; conditions: dog, MDCK; read-out: permeability
[10] = Solubility of compound in 0.01N HCl at pH 2 incubated for 48 to 72 hrs under shaking conditions by LCMS analysis; format: physicochemical
[11] = Clearance in BALB/c mouse at 1 mg/kg, iv or 10 mg/kg, po; format: ADME, organism-based; conditions: in vivo
[12] = Ratio of unbound plasma concentration in BALB/c mouse at 10 mg/kg to IC50 for inhibition of KRAS in human MIAPaca2 cells assessed as decrease in EGF-stimulated ERK1/2 phosphorylation preincubated for 2 hrs followed by EGF stimulation; format: organism-based; conditions: in vivo
Mus musculus = assay: Decrease in ERK1/ERK2 phosphorylation in human MIAPaCa2 cells xenografted in athymic nude mouse at 10 to 100 mg/kg, po administered as single dose measured after 60 to 120 mins post-treatment; format: functional, organism-based
GTPase KRas [13] = target: GTPase KRas (Homo sapiens, UniProt P01116); assay: Inhibition of KRAS in human MIAPaca2 cells assessed as decrease in EGF-stimulated ERK1/2 phosphorylation preincubated for 2 hrs followed by EGF stimulation; format: cell-based
[14] = Protein binding in BALB/c mouse plasma assessed as unbound fraction by ultracentrifugation; format: ADME, cell-free
GTPase KRas [15] = target: GTPase KRas (Homo sapiens, UniProt P01116, C118A/G12C); assay: Inhibition of GDP bound recombinant human His-tagged KRAS G12C/C118A mutant (1 to 169 residues) assessed as reduction in SOS1-mediated GDP/GTP nucleotide exchange by measuring the disruption between GDP-bound recombinant His-tagged KRAS G12C/C118A (1 to 169 residues) and Ras binding domain of GST-tagged c-RAF (1 to 149 residues) preincubated for 5 mins followed by SOS1 and GTP addition and further incubated for 30 mins by AlphaLISA assay

Row | Vd [2] | solubility thermodynamic [4] | hepatocyte CLint at 0.5 µM [5] | pIC50 (A549) | pIC50 (MIA PaCa-2) | hepatocyte CLint at 0.5 µM [7] | solubility thermodynamic [8] | Papp A→B at 2 h, up to 50 µM [9] | solubility thermodynamic [10] | Compound | t1/2 [1] | bioavailability [3] | half-life [6] | clearance [11] | Ratio [12] | inhibition (Mus musculus) | pIC50 (GTPase KRas [13]) | fraction unbound [14] | pIC50 (GTPase KRas [15])
1 |  |  |  |  |  |  |  |  |  | C=CC(=O)N1CCN(c2nc(=O)n(-c3ccccc3C(C)C)c3nc(-c4c(O)cccc4F)c(Cl)cc23)[C@@H](C)C1 (stereo in doubt; (S)-18) | 190 h |  |  |  |  |  |  |  | 
2 | 0.8 L/kg | 381 µM (≈ 220 µg/mL) | 11 µL/min/1e6 cells | 4.47 | 9.00 | 75 µL/min/1e6 cells | 46 µM (≈ 26.5 µg/mL) | 1 ×10⁻⁶ cm/s | 500 µM (≈ 289 µg/mL) | C=CC(=O)N1CCN(c2nc(=O)n(-c3c(C)ccnc3C(C)C)c3nc(-c4c(O)cccc4F)c(Cl)cc23)[C@@H](C)C1 |  | < 0.5% | 24 min | 65 mL/min/kg |  |  |  |  | 
3 | 1.7 L/kg | 500 µM (≈ 281 µg/mL) | 5 µL/min/1e6 cells | < 4.30 | 8.05 | 65 µL/min/1e6 cells | 495 µM (≈ 278 µg/mL) | < 1 ×10⁻⁶ cm/s | 500 µM (≈ 281 µg/mL) | C=CC(=O)N1CCN(c2nc(=O)n(-c3c(C)ncnc3C(C)C)c3nc(-c4c(O)cccc4F)c(F)cc23)[C@@H](C)C1 |  | 10% | 18 min | 78.3 mL/min/kg |  |  |  |  | 
4 |  |  |  |  |  |  |  |  |  | C=CC(=O)N1CCN(c2nc(=O)n(-c3c(C(C)C)ncnc3C(C)C)c3nc(-c4c(O)cccc4F)c(Cl)cc23)[C@@H](C)C1 |  | 13% | 48 min | 38.3 mL/min/kg | 0.8 |  | 7.60 | 0.03 | 7.68
5 |  |  |  |  |  |  |  |  |  | C=CC(=O)N1CCN(c2nc(=O)n(-c3scnc3C(C)C)c3nc(-c4c(O)cccc4F)c(Cl)cc23)[C@@H](C)C1 |  | 22% | 66 min | 36.7 mL/min/kg | 1.5 |  | 7.20 | 0.02 | 

Row | Compound | Vd [2] | solubility thermodynamic [4] | hepatocyte CLint at 0.5 µM [5] | pIC50 (A549) | pIC50 (MIA PaCa-2) | hepatocyte CLint at 0.5 µM [7] | solubility thermodynamic [8] | Papp A→B at 2 h, up to 50 µM [9] | solubility thermodynamic [10] | t1/2 [1] | bioavailability [3] | half-life [6] | clearance [11] | Ratio [12] | inhibition (Mus musculus) | pIC50 (GTPase KRas [13]) | fraction unbound [14] | pIC50 (GTPase KRas [15])
6 | C=CC(=O)N1CCN(c2nc(=O)n(-c3c(C)cccc3C(C)C)c3nc(-c4c(O)cccc4F)c(Cl)cc23)[C@@H](C)C1 |  | 204 µM (≈ 118 µg/mL) | 30 µL/min/1e6 cells | 4.92 | 8.70 | 102 µL/min/1e6 cells | 12 µM (≈ 6.91 µg/mL) | 15 ×10⁻⁶ cm/s | 9 µM (≈ 5.18 µg/mL) |  | 4 to 21% | 30 to 54 min | 23.3 to 45 mL/min/kg | 4.5 | Active | 7.55 | 0.03 | 
